In turn, `COc1cc(S(C)=O)ccc1-c1nc2ccccc2[nH]1` (configuration not stated) displayed a logP of 2.15. Then `Nc1nc(Cl)nc2c1ncn2C1OC(CO)C(O)C1O` (configuration not stated), with -0.37; and `Cc1ncnc2c1ncn2C1CCC(CO)O1` (configuration not stated), with -0.12; and `CC(=O)NC(Cc1ccccc1)C(=O)NC(CCCCN)C(N)=O` (configuration not stated), with 0.14. Then `Cc1n[nH]c(C(=O)N2CCCC2)c1[N+](=O)[O-]`, with 0.25; and `CCCCC(NC(Cc1ccccc1)C(=O)N1CCC(OCOC)CC1)C(=O)NC(CC1CCCCC1)C(O)CC(C(=O)NCCC[N+]1([O-])CCOCC1)C(C)C` (configuration not stated), with 3.6. In the case of `Cc1ccc(C(=O)OCCN(C)C)cc1`, the logP is 2.53. `CC(=O)C12OC(C)(c3ccc(F)cc3)OC1CC1C3CCC4=CC(=O)CCC4(C)C3CCC12C` (configuration not stated) showed a logP of 5.7. Then `CNC(=O)C1(O)C(C)CC2C3CCC4=CC(=O)C=CC4(C)C3(F)C(O)CC21C` (configuration not stated), with 1.54; and `CNC(=NC#N)NCCCCc1ncccc1OC`, with 1.5. Then `CCCCN1C(=O)C(=O)c2ccccc2C1=O`, with 2.18.

`CC(=O)Nc1ncnc2c1ncn2C1CC(O)C(CO)O1` (configuration not stated) registered a logP of -0.19. Turning to `O=C(O)C(Cc1ccc(O)cc1)n1cccc1` (configuration not stated), the logP was 1.56. Then `CCC(=O)C(CS(=O)(=O)c1ccc(C)cc1)c1ccc(C)cc1` (configuration not stated), with 3.3; and `Nc1nc(Cl)c2ncn(C3OC(CO)CC3F)c2n1` (configuration not stated), with 0.28. `CCCCCCOC(=O)Oc1cccc(C2(C(=O)CC)CCN(C)CC2)c1`: the log partition coefficient (logP) came out at 3.38. Then `CCCCCC(=O)OCCOCn1cnc2c(=O)[nH]c(N)nc21`, with 0.93; and `COc1cc(O)cc(OC)c1O`, with 0.17; and `CC(CCC(N)=O)n1nnc2ccccc21` (configuration not stated), with 1.15. On to `O=C(NCCCO)C(F)(F)Cn1ccnc1[N+](=O)[O-]`, for which the logP is -0.64. `CN1CCC(=C2c3ccccc3CCc3cccnc32)CC1`: the logP amounted to 3.59.

`C#CCOc1c(Cl)cc(NC=NOCOCC)cc1Cl`: the log partition coefficient (logP) is 3.5. `CCCN1C(=O)C(=O)c2ccccc2C1=O` came in with a logP of 1.6. As for `CC(=O)NC(CCCCN)C(=O)NC(Cc1ccccc1)C(N)=O` (configuration not stated), the log partition coefficient (logP) is 0.12. Then `O=c1[nH]c(Nc2ccccc2)nc2c1ncn2C1CC(O)C(CO)O1` (configuration not stated), with 0.4. Then `OCC1CC(F)C(n2cnc3c(Br)ncnc32)O1` (configuration not stated), with 0.44.

The compound `CCC1COC(Cn2cncn2)(c2ccc(NC(=O)c3ccc([N+](=O)[O-])cc3)cc2)O1` (configuration not stated) gave a logP of 2.17. Then `CN1C(=O)C(=O)C(=O)N(C)C1=O`, with -0.6; and `Cc1cc(O)cc(Br)c1O`, with 1.38; and `O=[N+]([O-])C=C1NCCN1Cc1ccccc1`, with 0.33. Then `CCC(C)NC(=O)C(=Cc1ccccc1)c1ccccc1` (configuration not stated), with 4.05; and `Nc1ccc(Oc2ccc(N)cc2)cc1`, with 1.36. Then `C=Cc1ncc([N+](=O)[O-])n1C`, with 0.62; and `FC(F)(F)c1ccccc1C1OCC2ON=C(c3ccccc3)C2CO1` (configuration not stated), with 4.31; and `N#CN=C1NCCN1Cc1cccnc1`, with 0.77. In turn, `COC(O)Cn1c(Br)cnc1[N+](=O)[O-]` (configuration not stated) registered a lipophilicity (logP) of 0.16.

`COCCN1CCc2cccc(Cl)c2CC1` had a logP of 3. `CC1CC2C3CCC4=CC(=O)C=CC4(C)C3(F)C(O)CC2(C)C1(O)C(=O)NCCO` (configuration not stated) showed a logP of 1.51.

With `O=C(O)c1ccccc1N1C(=O)CCC1=O`, the logP stood at 1.55. This logP and that of the compound before are within 0.2 log units of each other. `CSCCC(NC(C)=O)C(=O)NC(C(N)=O)C(C)C` (configuration not stated) displayed a log partition coefficient (logP) of -0.28. The compound `Clc1cc2c(c(Cl)c1Cl)Oc1c(Cl)cccc1O2` displayed a logP of 6.39. Then `O=C(O)CCCCC(S)CCS` (configuration not stated), with 2.41; and `CCC(=O)OC1(c2ccccc2)CCN(C)C(C)C1C` (configuration not stated), with 3.13.

With `Clc1ccc(Cl)c(-c2c(Cl)ccc(Cl)c2Cl)c1Cl`, the log partition coefficient (logP) was found to be 7.12. Then `CN(C)N=Nc1nccs1`, with 1.27. Then `Clc1cc(-c2cc(Cl)c(Cl)c(Cl)c2Cl)c(Cl)c(Cl)c1Cl`, with 8.68. Then `CCc1ccc(OCc2ccccc2CCCN2CCC(O)CC2)cc1`, with 3.75. Turning to `O=C1NC(=O)C(=O)C(=O)N1`, the lipophilicity (logP) is -1.84. Then `CC(=O)c1c(C)n(C)c2ccccc12`, with 2.03. Then `CCOc1ccccc1NC(=O)OCCN1CCOCC1`, with 2.27; and `Clc1ccc(-c2c(Cl)c(Cl)c(Cl)c(Cl)c2Cl)cc1`, with 7.31. Then `Nc1ccccc1S(N)(=O)=O`, with 0.22. As for `COc1cccc2c1C(=O)c1c(O)c3c(c(O)c1C2=O)CC(O)(C(O)CO)CC3OC1CC(N2CCOCC2C#N)C(O)C(C)O1` (configuration not stated), the logP amounted to 1.56. `Clc1ccc(-c2ccc(Cl)c(Cl)c2)c(Cl)c1` showed a log partition coefficient (logP) of 6.31. Then `CCOC(=O)Cn1cnc([N+](=O)[O-])c1I`, with 0.57; and `Clc1cccc(-c2c(Cl)cc(Cl)c(Cl)c2Cl)c1Cl`, with 7.25. Then `Cc1ncc([N+](=O)[O-])n1CCc1ccncc1`, with 0.06; and `Cc1cc([N+](=O)[O-])ccc1NN=C(C#N)C#N`, with 3.55; and `Cc1ncc(CO)c(COCCC(C)C)c1O`, with 0.83.

`CCN1C(=O)C(=O)c2c(C#N)cccc2C1=O` registered a logP of 0.41. Then `CCN(CC)C(=O)OCCCc1cccnc1`, with 2.36; and `Cn1c([N+](=O)[O-])cnc1Cc1ccc(C(N)=O)cc1`, with 0.55. Then `CCN(C)N=Nc1ccccc1C(N)=O`, with 2.59; and `CCCCC(NC(Cc1ccccc1)C(=O)N1CCC(OCOC)CC1)C(=O)NC(CC1CCCCC1)C(O)CC(C(=O)NCCCNCCO)C(C)C` (configuration not stated), with 3.5; and `CC1=NCCC1`, with 1.87. Compound `C1CCC2=NCCCN2CC1` had a log partition coefficient (logP) of 1.38. Then `CCC(C)NC(=O)C=C(N)c1ccc(Cl)cc1` (configuration not stated), with 2.94. As for `COc1ncnc2c1ncn2C1OC(CO)CC1F` (configuration not stated), the logP was found to be 0.25. On to `COc1ccc(C(=O)NP(=O)(N2CC2)N2CC2)cc1`, for which the log partition coefficient (logP) stood at 1.08. Then `C#CCOc1c(Cl)cc(NC=NOCC=C)cc1Cl`, with 3.7; and `O=C(NCO)c1c(I)c(C(=O)NCCO)c(I)c(N(CC(O)CO)C(=O)C(O)CO)c1I` (configuration not stated), with -2.65; and `O=C(O)c1cccc2cccc(C(=O)O)c12`, with 1.98. Then `CCOc1ccccc1OCc1ccccc1CCCN1CCC(O)CC1`, with 3.1; and `CCCCCC1CC(C(=O)NC(C(C)O)C2OC(SC)C(O)C(O)C2O)N(C)C1` (configuration not stated), with 0.93. In turn, `O=c1cccccc1` came in with a log partition coefficient (logP) of 0.26. Then `CCCC(=O)OCCOCn1cnc2c(=O)[nH]c(N)nc21`, with -0.08; and `CC(C)OC(=O)n1cc(F)c(=O)[nH]c1=O`, with 0.2; and `CCCNC(=O)c1ccccc1`, with 1.72.

In turn, `O=[N+]([O-])c1ccc2ccc3cccc4ccc1c2c34` displayed a lipophilicity (logP) of 5.06. In the case of `CCCCCCCOc1ccccc1NC(=O)OCCN1CCOCC1`, the lipophilicity (logP) is 4.51. Then `CCCC(C)C(=O)OCC1CCC(n2cnc3c(=O)[nH]cnc32)O1` (configuration not stated), with 1; and `O=C(O)c1c(Br)cccc1Br`, with 3.58. Then `Cc1c(Cl)c(Cl)c(Cl)c(Cl)c1Cl`, with 5.62; and `CCCN1C(=O)NC(=O)C(=O)C1=O`, with 0.28. Then `CCC1(C(C)c2ccccc2)C(=O)NC(=O)N(C)C1=O` (configuration not stated), with 3.14; and `COC(=O)n1cc(F)c(=O)[nH]c1=O`, with -0.68. As to `CCC(=O)C(CS(=O)(=O)c1ccc(C)cc1)c1ccccc1` (configuration not stated), the logP came out at 2.45.

The compound `CCC(C)(C)c1ccc(C2CCCC(O)C2)c(O)c1` (configuration not stated) yielded a lipophilicity (logP) of 4.32. Then `CC(C)C(=O)Nc1cc(C(F)(F)F)ccc1S(N)(=O)=O`, with 2.45; and `CCCn1cnc2c(NC(C)=O)ncnc21`, with 0.09; and `CON=C(C(=O)NC1C(=O)N2C(C(=O)OCOC(=O)C(C)(C)C)=CCSC12)c1csc(N)n1` (configuration not stated), with 1.76. Consider `CCCCOc1ccccc1NC(=O)OCCN1CCOCC1`, for which the log partition coefficient (logP) amounted to 3.25. `CC1(C)CCC(C)(C)N1[O]` gave a logP of 1. Then `Oc1ccc(I)c2cccnc12`, with 3.27; and `O=[N+]([O-])c1nccn1COC(CO)CO`, with -1.17; and `CSC(=NOC(=O)N(C)COC1OC(C(=O)O)C(O)C(O)C1O)C(=O)N(C)C` (configuration not stated), with -2.52. Consider `Cc1cc(Cl)cc(Cl)c1`, for which the log partition coefficient (logP) amounted to 3.99. Then `Clc1cc(Cl)cc(-c2cc(Cl)c(Cl)c(Cl)c2Cl)c1`, with 7.43. Then `CCOc1cccc(NC(=O)OCCN2CCOCC2)c1`, with 2.5; and `COc1ccc2ccc(=O)oc2c1`, with 1.74; and `Cc1cccc(OCCO)c1`, with 1.76. On to `COCCNC(=O)C(F)(F)Cn1cnc([N+](=O)[O-])n1`, for which the log partition coefficient (logP) was -0.15. Then `Cc1cc(O)c(C)c(C)c1O`, with 1.69. Then `Nc1ncnc2c1nc(F)n2C1CCC(CO)O1` (configuration not stated), with -0.03; and `CC12CCC(=O)C=C1CC(C#N)C1C2CCC2(C)C1CCC21CCC(=O)O1` (configuration not stated), with 1.67. Then `COC(=O)c1ccccc1CS(=O)(=O)Nc1nc(OC)cc(OC)n1`, with 2.4; and `Clc1cc(Cl)cc(-c2c(Cl)cc(Cl)c(Cl)c2Cl)c1`, with 7.1; and `C#CCOc1c(Cl)cc(NC=NO)cc1Cl`, with 2.8. `O=C(NC(CO)C(O)c1ccc(-c2ccccn2)cc1)C(F)(F)F` (configuration not stated) gave a logP of 1.31. Then `CCN(CC)Cc1ccc(C(=O)Nc2ccccc2C)cc1`, with 3.31. Then `Clc1cc(Cl)c(Cl)c(-c2cc(Cl)c(Cl)cc2Cl)c1`, with 7.12; and `Nc1nc(Sc2ccc(Cl)cc2)nc(C(Cl)(Cl)Cl)n1`, with 4.51. Then `Cc1n[nH]c(C(=O)NC2CCCCC2)c1[N+](=O)[O-]`, with 1.71; and `O=C(OCCCl)n1cc(F)c(=O)[nH]c1=O`, with 0.02; and `CCN(CC)S(=O)(=O)N(CC)C1C=C2c3cccc4[nH]cc(c34)CC2N(C)C1` (configuration not stated), with 3.09. In the case of `O=C1C(=O)N(c2ccccc2)C(=O)c2ccccc21`, the logP came to 1.14.

The compound `Cc1nnc[nH]1` yielded a lipophilicity (logP) of -0.55.
